By Tmax is commonly meant the time at which the peak concentration occurs. The AUC(0-t) is exposure summed from dosing to a finite time, without extrapolation to infinity.

Data set [1] in a line: Cardiovascular safety in telemetered cynomolgus monkey. It is filed as in vivo. From the text: Compound 1 is a non-limiting example of a composition described herein that inhibits calcium release-activated calcium (CRAC) channels).
The nature of data set [2]: Phase 1 single ascending dose study (Compound 1 Test 101), healthy subjects. It is filed as in vivo, human. An excerpt:
Two Phase 1 studies of N-(5-(6-Chloro-2,2-difluorobenzo[d][1,3]dioxol-5-yl)pyrazin-2-yl)-2-fluoro-6-methylbenzamide (Compound 1) have been conducted in healthy subjects: a single ascending dose (SAD) study (Compound 1 Test 101) and a multiple ascending dose (MAD) study (Compound 1 Test 102). In Compound 1 Test 101 (Table 1), 32 healthy subjects were enrolled in five groups and randomized in a 3:1 ratio to receive a single dose of active versus placebo. The dose levels for each group are noted in Table 1. The dose volume of the emulsion was fixed at 1.3 mL/kg for all subjects in the SAD study groups, and an injectable emulsion of Compound 1 or placebo was administered via a 4-hour IV infusion.
Plasma concentrations of compound rise steadily during the 4-hour infusion, with Tmax achieved at the end of infusion (4 hours). After the end of infusion, there is a rapid and prominent distribution phase followed by a prolonged period of residual drug levels. The terminal elimination phase has not yet been fully characterized as it appears to be much longer than was anticipated based on pre-clinical PK data in mouse, rat, dog and monkey. Plasma concentrations during the terminal phase are approximately 5% of Cmax values and, as indicated above, to date there have been no clinically significant AEs reported during this phase. Plasma exposures, defined by AUC0-24 h, appear to be dose-proportional and reached a maximum of 6710 ng*h/mL in Group 5, which is 4.3-fold below the mean AUC24 h in monkey at the NOAEL (29,000 ng*hr/mL).

The test system of data set [3] is 3T3. As to the kind of experiment: In vitro 3T3 phototoxicity. It is filed as cell-based.

As for `Cc1cccc(F)c1C(=O)Nc1cnc(-c2cc3c(cc2Cl)OC(F)(F)O3)cn1` [Compound 1, N-(5-(6-Chloro-2,2-difluorobenzo[d][1,3]dioxol-5-yl)pyrazin-2-yl)-2-fluoro-6-methylbenzamide], the “cardiovascular data at lower doses” value in data set [1] (1, 3 and 10 mg/kg, also seen in placebo treated animals) is “transient, non-dose-related, slight-to-moderate increases in systolic/diastolic arterial blood pressures and negative chronotropic effects (mild and non-adverse)”. Further, the “clinical and cardiovascular effects” value in data set [1] (single telemetered cynomolgus monkey, 25 mg/kg IV) is “Dose-limiting adverse clinical and cardiovascular effects”. In addition, the “margin of AUC0-24 h below mean AUC24 h in monkey at the NOAEL” value in data set [2] (SAD Group 5) was 4.3 fold. For the same compound, in data set [2] (human, in vivo), the time of peak concentration (Tmax) came out at 4 h; the “cardiac function: heart rate, QTcF, cardiac troponin-T, B-type natriuretic peptide” value is recorded as “no evidence of any treatment related effect”; the “clinically significant laboratory abnormalities” value is reported as “No laboratory abnormalities”; the “distribution compartments, non-compartmental PK analysis” value is “three compartments”. Also, in data set [2] (human, in vivo), the “dose proportionality of plasma exposure (AUC0-24 h)” value was “dose-proportional”, the “number of clinical AEs (all mild)” value is “three”, the “plasma concentrations during the terminal phase relative to Cmax” value was “approximately 5 % of Cmax” and the “systolic or diastolic blood pressure” value is on record as “no evidence of any sustained treatment related increase”. The same compound gave an AUC(0-t) in data set [2] (human, in vivo, 2.1 mg/kg) of 6710 ng·h/mL. Also, the “phototoxicity, in vitro 3T3” value in data set [3] is reported as “potentially phototoxic”.

Values taken from patent publication US12544371B2, “Methods and compositions for treating acute lung injury and acute respiratory distress syndrome” (CalciMedica, Inc., priority 2020, dated 2026).
